# Literature values in patent publication US9943503B1, “Pharmaceutical composition for treating bacterial and viral infections” (priority 2017, dated 2018).
# System: common cold
# Conditions: adults; review of evidence
row,SMILES,"prevention of the common cold, evidence"
1,C=CCS[S+]([O-])CC=C (centres unmarked) [Allicin],highly effective
2,"O=C1O[C@H]([C@@H](O)CO)C(O)=C1O [vitamin C, ascorbic acid]",demonstrated benefit
